Activity calls are given as the source filed them. The calls are words filed in the database; no cut-off is given here.

Assay [1] addresses T1, P2X purinoceptor 1 (Homo sapiens) (UniProt P51575).
T1 sequence (whole entry): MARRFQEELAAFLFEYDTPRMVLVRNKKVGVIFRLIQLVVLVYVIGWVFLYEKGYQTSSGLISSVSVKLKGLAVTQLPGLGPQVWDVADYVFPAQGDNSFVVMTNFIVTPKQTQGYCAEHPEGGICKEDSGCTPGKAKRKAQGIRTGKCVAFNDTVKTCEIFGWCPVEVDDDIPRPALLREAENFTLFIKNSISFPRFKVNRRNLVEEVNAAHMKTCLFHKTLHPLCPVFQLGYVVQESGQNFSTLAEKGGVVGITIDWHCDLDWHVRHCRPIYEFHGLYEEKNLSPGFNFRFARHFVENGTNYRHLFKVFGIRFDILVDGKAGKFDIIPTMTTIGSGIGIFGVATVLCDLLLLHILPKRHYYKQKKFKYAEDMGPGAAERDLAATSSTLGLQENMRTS
Put plainly: Antagonist activity at non-desensitizing human P2X1 receptor ( P2X2/P2X1 chimera) expressed in human 1321N1 cells assessed as inhibition of ATP-induced calcium influx at 10 uM pre-incubated for 30 mins before ATP stimulation by FLIPR assay relative to control. In kind it is cell-based.

The target of assay [2] is P2X purinoceptor 1 (Homo sapiens, UniProt P51575). Briefly: (§1) Antagonist activity at non-desensitizing human P2X1 receptor ( P2X2/P2X1 chimera) expressed in human 1321N1 cells assessed as inhibition of ATP-induced calcium influx pre-incubated for 30 mins before ATP stimulation by FLIPR assay relative to control. In kind it is cell-based.
Assay [3] addresses T1, P2X purinoceptor 1 (Homo sapiens). Briefly: Negative allosteric modulator activity at non-desensitizing human P2X1 receptor ( P2X2/P2X1 chimera) expressed in human 1321N1 cells assessed as inhibition of maximal response for ATP-induced calcium influx at 100 to 500 nM pre-incubated for 30 mins before ATP stimulation by FLIPR assay relative to control. The format is cell-based.

A further assay concerns the target T2, P2X purinoceptor 2 (Homo sapiens, UniProt Q9UBL9).
T2 sequence (Q9UBL9 whole entry): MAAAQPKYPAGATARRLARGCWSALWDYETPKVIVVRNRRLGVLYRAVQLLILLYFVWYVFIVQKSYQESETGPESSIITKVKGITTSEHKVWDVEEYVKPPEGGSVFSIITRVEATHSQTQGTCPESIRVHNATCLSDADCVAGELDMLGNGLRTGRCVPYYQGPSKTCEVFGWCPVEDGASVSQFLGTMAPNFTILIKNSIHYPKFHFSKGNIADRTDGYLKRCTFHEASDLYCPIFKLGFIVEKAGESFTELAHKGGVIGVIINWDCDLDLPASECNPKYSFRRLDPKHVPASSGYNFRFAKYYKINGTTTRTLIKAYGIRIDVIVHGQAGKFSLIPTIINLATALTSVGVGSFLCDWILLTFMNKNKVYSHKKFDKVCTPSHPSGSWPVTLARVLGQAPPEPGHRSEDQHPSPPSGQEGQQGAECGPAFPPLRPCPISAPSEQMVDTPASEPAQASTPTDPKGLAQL
Briefly: Antagonist activity at human P2X2 receptor expressed in human 1321N1 cells assessed as inhibition of ATP-induced cytosolic calcium influx preincubated for 30 mins followed by ATP addition by Fluo-4 AM dye-based fluorescence assay. In kind it is cell-based.

For a further assay, the target named is T3, P2X purinoceptor 3 (Homo sapiens, UniProt P56373).
T3 sequence (P56373 whole entry): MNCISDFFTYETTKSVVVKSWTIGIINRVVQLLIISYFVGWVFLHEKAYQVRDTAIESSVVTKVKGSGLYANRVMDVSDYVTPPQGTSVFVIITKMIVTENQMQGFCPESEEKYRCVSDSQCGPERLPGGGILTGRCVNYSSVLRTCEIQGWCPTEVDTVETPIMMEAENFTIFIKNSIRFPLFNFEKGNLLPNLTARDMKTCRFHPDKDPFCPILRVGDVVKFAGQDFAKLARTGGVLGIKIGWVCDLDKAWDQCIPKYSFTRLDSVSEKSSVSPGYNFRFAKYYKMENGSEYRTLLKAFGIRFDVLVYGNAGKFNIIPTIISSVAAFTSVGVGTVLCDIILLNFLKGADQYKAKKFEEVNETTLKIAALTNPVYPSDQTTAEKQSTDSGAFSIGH
Briefly: Antagonist activity at human P2X3 receptor expressed in human 1321N1 cells assessed as inhibition of ATP-induced cytosolic calcium influx preincubated for 30 mins followed by ATP addition by Fluo-4 AM dye-based fluorescence assay. In kind it is cell-based.

For assay [4], the target named is T4, P2X purinoceptor 3 (Homo sapiens) (UniProt P56373).
T4 sequence (whole entry): T3 sequence (P56373 whole entry)
Briefly: Antagonist activity at human P2X3 receptor expressed in human 1321N1 cells assessed as inhibition of ATP-induced cytosolic calcium influx at 10 uM preincubated for 30 mins followed by ATP addition by Fluo-4 AM dye-based fluorescence assay relative to control. The format is cell-based.

The target of the next assay is T5, P2X purinoceptor 4 (Homo sapiens, UniProt Q99571).
T5 sequence (Q99571 whole entry): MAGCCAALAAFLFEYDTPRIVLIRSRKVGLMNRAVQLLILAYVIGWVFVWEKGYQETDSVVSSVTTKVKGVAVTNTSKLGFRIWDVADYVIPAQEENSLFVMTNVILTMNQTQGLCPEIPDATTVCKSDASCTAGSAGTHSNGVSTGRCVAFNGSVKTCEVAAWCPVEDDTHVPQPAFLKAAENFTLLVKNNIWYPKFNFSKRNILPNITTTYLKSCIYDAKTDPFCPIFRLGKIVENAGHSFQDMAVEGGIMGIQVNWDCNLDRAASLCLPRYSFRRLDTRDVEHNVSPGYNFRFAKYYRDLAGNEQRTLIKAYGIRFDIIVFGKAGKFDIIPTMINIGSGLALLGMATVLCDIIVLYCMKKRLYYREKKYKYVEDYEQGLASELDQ
Briefly: Antagonist activity at human P2X4 receptor expressed in human 1321N1 cells assessed as inhibition of ATP-induced cytosolic calcium influx preincubated for 30 mins followed by ATP addition by Fluo-4 AM dye-based fluorescence assay. In kind it is cell-based.

For assay [5], the target named is T6, P2X purinoceptor 4 (Homo sapiens) (UniProt Q99571).
T6 sequence (whole entry): T5 sequence (Q99571 whole entry)
Briefly: Antagonist activity at human P2X4 receptor expressed in human 1321N1 cells assessed as inhibition of ATP-induced cytosolic calcium influx at 10 uM preincubated for 30 mins followed by ATP addition by Fluo-4 AM dye-based fluorescence assay relative to control. In kind it is cell-based.

The next assay deals with T7, P2X purinoceptor 7 (Homo sapiens, UniProt Q99572).
T7 sequence (Q99572 whole entry): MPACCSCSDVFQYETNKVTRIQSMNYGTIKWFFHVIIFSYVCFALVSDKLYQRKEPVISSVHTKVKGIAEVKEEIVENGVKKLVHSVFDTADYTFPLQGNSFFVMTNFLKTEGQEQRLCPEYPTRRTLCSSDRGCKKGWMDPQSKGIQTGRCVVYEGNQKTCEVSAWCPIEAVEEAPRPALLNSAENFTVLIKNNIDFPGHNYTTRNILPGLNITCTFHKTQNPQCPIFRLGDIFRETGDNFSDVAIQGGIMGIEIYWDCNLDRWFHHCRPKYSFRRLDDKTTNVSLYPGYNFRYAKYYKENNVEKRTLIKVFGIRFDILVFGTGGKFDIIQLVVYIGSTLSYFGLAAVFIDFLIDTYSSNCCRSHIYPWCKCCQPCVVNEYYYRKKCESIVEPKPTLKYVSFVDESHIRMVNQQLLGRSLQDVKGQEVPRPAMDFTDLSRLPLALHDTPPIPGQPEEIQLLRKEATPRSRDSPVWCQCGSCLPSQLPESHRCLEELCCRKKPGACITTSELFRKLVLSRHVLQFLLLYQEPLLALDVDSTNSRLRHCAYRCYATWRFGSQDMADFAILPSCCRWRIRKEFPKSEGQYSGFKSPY
Put plainly: Antagonist activity at human P2X7 receptor expressed in human 1321N1 cells assessed as inhibition of ATP-induced cytosolic calcium influx preincubated for 30 mins followed by ATP addition by Fluo-4 AM dye-based fluorescence assay. The format is cell-based.

Assay [6] deals with T8, P2X purinoceptor 2 (Homo sapiens) (UniProt Q9UBL9).
T8 sequence (whole entry): T2 sequence (Q9UBL9 whole entry)
Put plainly: Antagonist activity at human P2X2 receptor expressed in human 1321N1 cells assessed as inhibition of ATP-induced cytosolic calcium influx at 10 uM preincubated for 30 mins followed by ATP addition by Fluo-4 AM dye-based fluorescence assay relative to control. In kind it is cell-based.

Assay [7] deals with T1, P2X purinoceptor 1 (Homo sapiens). Briefly: Antagonist activity P2X1 receptor in Apyrase pre-treated human platelets assessed as inhibition of collagen-induced platelet aggregation pre-incubated for 30 mins before collagen stimulation by aggregometry relative to control. The format is cell-based.
Assay [8] shares this target. Put plainly: Antagonist activity P2X1 receptor in Apyrase pre-treated human platelets assessed as inhibition of TRAP6-induced platelet aggregation pre-incubated for 30 mins before TRAP6 stimulation by aggregometry relative to control. In kind it is cell-based.
Assay [9] has the same target. Briefly: Antagonist activity P2X1 receptor in human platelets assessed as inhibition of ADP-induced platelet aggregation pre-incubated for 30 mins before ADP stimulation by aggregometry relative to control. The format is cell-based.
In assay [10] the target is T9, P2X purinoceptor 1 (Rattus norvegicus, UniProt P47824).
T9 sequence (P47824 whole entry): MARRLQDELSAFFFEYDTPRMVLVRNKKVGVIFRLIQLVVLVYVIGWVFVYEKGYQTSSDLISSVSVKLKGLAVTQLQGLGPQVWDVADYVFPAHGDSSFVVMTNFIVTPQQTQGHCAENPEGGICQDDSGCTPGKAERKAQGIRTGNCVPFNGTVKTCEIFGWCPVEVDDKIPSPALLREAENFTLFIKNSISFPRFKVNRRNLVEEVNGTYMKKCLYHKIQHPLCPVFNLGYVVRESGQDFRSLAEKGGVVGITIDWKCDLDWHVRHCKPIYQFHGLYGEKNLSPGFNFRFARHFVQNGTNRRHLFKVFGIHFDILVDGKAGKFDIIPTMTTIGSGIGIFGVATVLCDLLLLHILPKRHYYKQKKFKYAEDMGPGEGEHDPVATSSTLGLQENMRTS
Briefly: Antagonist activity at rat P2X1 receptor.

Assay [11] addresses T1, P2X purinoceptor 1 (Homo sapiens). Briefly: Antagonist activity at non-desensitizing human P2X1 receptor ( P2X2/P2X1 chimera) expressed in human 1321N1 cells assessed as inhibition of ATP-induced calcium influx at 1 uM pre-incubated for 30 mins before ATP stimulation by FLIPR assay relative to control. In kind it is cell-based.
For assay [12] the target is unchanged. The description is as §1. In kind it is cell-based.

For `O=C(Nc1cc(C(F)(F)F)cc(C(F)(F)F)c1)c1cccc(F)c1O`, the inhibition (in general, the relative decrease from the control value, in per cent) worked out at 80% in assay [1], 38% in [4] and 49% in [5]. The IC50 (commonly the point on the concentration scale where inhibition reaches its midpoint) was 70.6 nM at P2X purinoceptor 1 [2]; above 10000 nM on P2X purinoceptor 2; above 10000 nM at P2X purinoceptor 3; at least 10000 nM on P2X purinoceptor 4; 857 nM on P2X purinoceptor 7. Moreover, the inhibition entry in assay [3] is “Active”.
On to `O=C(Nc1cc(F)cc(F)c1)c1cc(Cl)ccc1O`, for which the inhibition in [1] amounted to 62%; in assay [6] it was 4%; in assay [4], 2%; in assay [7], 47%; in assay [8] it was 5%; in [9] it was 14%. For the same molecule, the IC50 at P2X purinoceptor 1 [2] was 50.5 nM; at P2X purinoceptor 2, above 10000 nM; at P2X purinoceptor 3, above 10000 nM; on P2X purinoceptor 4 it was 155 nM; at P2X purinoceptor 7, 160 nM.
Turning to `Cc1ccc(C(=O)Nc2ccc(S(=O)(=O)O)c3cc(S(=O)(=O)O)cc(S(=O)(=O)O)c23)cc1NC(=O)c1cccc(NC(=O)Nc2cccc(C(=O)Nc3cc(C(=O)Nc4ccc(S(=O)(=O)O)c5cc(S(=O)(=O)O)cc(S(=O)(=O)O)c45)ccc3C)c2)c1` [SURAMIN], the IC50 on P2X purinoceptor 1 [10] is 1000 to 1700 nM. Also, the inhibition in [1] is above 90%; in assay [11] it was above 40%.
As for `Cc1nc(/N=N/c2ccc(S(=O)(=O)O)cc2S(=O)(=O)O)c(COP(=O)(O)O)c(C=O)c1O`, half-maximal inhibition at P2X purinoceptor 1 [10] (IC50) was put at 1000 nM.
Turning to `O=C(Nc1cc(C(F)(F)F)cc(C(F)(F)F)c1)c1cc(Cl)ccc1O` [IMD-0354], the inhibition in assay [1] is above 75%; in assay [11], above 40%; in assay [12], “Dose-dependent effect”; in assay [6] it was -7%; in assay [4], 11%. Besides, the IC50 is 19.2 nM on P2X purinoceptor 1 [2]; above 10000 nM at P2X purinoceptor 2; above 10000 nM on P2X purinoceptor 3; 156 nM at P2X purinoceptor 4; 175 nM at P2X purinoceptor 7. In addition, the inhibition result in assay [3] is “Active”.
Regarding `O=C(N[C@H](Cc1cscn1)C(=O)N[C@@H](CC1CCCCC1)[C@@H](O)[C@@H](O)C1CC1)c1nc2ccccc2[nH]1`, the IC50 was 3000 nM on P2X purinoceptor 1 [10] and 496 nM on P2X purinoceptor 1 [2]. Moreover, the inhibition in assay [1] was 100%.
With `O=C(Nc1ccc(C(F)(F)F)cc1)c1cc(Cl)ccc1O`, the inhibition in assay [1] was 53%; in [6], 3%; in assay [4], -6%; in assay [7], 7%; in assay [8] it was 6%; in [9] it was 23%.
For `O=C(Nc1cc(C(=O)Nc2ccc(S(=O)(=O)O)cc2S(=O)(=O)O)cc(C(=O)Nc2ccc(S(=O)(=O)O)cc2S(=O)(=O)O)c1)Nc1cc(C(=O)Nc2ccc(S(=O)(=O)O)cc2S(=O)(=O)O)cc(C(=O)Nc2ccc(S(=O)(=O)O)cc2S(=O)(=O)O)c1`, half-maximal inhibition at P2X purinoceptor 1 [10] (IC50) required 0.28 nM. The inhibition in [1] amounted to 100%.

Values taken from ChEMBL document CHEMBL4613266, “Discovery and Structure Relationships of Salicylanilide Derivatives as Potent, Non-acidic P2X1 Receptor Antagonists” (J Med Chem, 2020).
